Here are results for 14 compounds from the OPERA property sets (Mansouri et al. 2018).

As a reminder, the logP is a log measure of how a compound divides between an organic and an aqueous phase. Read a low logP as a more hydrophilic compound.

`Cn1c(=O)c2c([nH]c(=O)n2C)n(C)c1=O` gave a logP of -0.37.

In the case of `Cn1c(=O)[nH]c2[nH]c(=O)n(C)c2c1=O`, the lipophilicity (logP) is -0.22. Then `CN(C=O)c1c(N)[nH]c(=O)n(C)c1=O`, with -2.03; and `CN(C=O)c1c(N)n(C)c(=O)n(C)c1=O`, with -1.32; and `Cn1c(=O)c2[nH]c(=O)[nH]c2n(C)c1=O`, with -0.52. Compound `Cn1c(=O)[nH]c2[nH]c(=O)[nH]c2c1=O` returned a lipophilicity (logP) of -0.57. Next, `Cn1cnc2[nH]c(=O)[nH]c(=O)c21`: -0.89; `CN(C=O)c1c(N)n(C)c(=O)[nH]c1=O`: -1.3. Take `Cn1c(=O)[nH]c2nc[nH]c2c1=O`: the lipophilicity (logP) is -0.27. Then `Cn1c(N)c(NC=O)c(=O)n(C)c1=O`, with -0.64; and `Cn1c(=O)[nH]c(=O)c2[nH]cnc21`, with -0.5; and `Cn1c(=O)[nH]c2[nH]c(=O)[nH]c(=O)c21`, with -1.18. The compound `Cn1c(=O)[nH]c(=O)c2[nH]c(=O)[nH]c21` gave a logP of -1.08. `Cn1c(=O)[nH]c(=O)c2c1[nH]c(=O)n2C` showed a logP of -1.33.
